Tests used:
PDGFRα = PDGFRα (Homo sapiens, UniProt P16234); assay: Kinase IC50, PDGFRα
FMS = FMS (Homo sapiens, UniProt P07333); assay: Kinase IC50, FMS
Flt3 = Flt3 (Homo sapiens, UniProt P36888); assay: Kinase IC50, Flt3
TrkA = TrkA (Homo sapiens, UniProt P04629); assay: Kinase IC50, TrkA
Chain of TrkA (P04629 33-796): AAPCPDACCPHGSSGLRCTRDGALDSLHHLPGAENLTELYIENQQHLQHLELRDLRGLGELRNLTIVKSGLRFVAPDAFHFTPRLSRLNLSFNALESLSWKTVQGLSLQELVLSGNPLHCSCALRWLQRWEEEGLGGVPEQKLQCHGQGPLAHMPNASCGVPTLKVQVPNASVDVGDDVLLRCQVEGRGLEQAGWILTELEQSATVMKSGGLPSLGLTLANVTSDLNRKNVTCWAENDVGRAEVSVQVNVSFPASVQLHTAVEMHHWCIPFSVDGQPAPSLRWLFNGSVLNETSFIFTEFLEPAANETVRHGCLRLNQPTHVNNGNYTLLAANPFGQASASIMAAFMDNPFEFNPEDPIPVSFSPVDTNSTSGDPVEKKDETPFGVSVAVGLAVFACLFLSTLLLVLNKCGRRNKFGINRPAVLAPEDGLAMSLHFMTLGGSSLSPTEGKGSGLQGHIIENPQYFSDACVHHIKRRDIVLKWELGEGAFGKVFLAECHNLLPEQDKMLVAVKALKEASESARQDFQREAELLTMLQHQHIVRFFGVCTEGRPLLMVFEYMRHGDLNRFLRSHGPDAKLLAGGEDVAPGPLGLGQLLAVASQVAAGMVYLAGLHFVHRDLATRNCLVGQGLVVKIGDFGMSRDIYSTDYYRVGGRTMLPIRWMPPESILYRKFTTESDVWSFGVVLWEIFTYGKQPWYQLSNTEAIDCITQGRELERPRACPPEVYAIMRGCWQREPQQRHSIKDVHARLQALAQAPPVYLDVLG

Chain of FMS (P07333 20-972): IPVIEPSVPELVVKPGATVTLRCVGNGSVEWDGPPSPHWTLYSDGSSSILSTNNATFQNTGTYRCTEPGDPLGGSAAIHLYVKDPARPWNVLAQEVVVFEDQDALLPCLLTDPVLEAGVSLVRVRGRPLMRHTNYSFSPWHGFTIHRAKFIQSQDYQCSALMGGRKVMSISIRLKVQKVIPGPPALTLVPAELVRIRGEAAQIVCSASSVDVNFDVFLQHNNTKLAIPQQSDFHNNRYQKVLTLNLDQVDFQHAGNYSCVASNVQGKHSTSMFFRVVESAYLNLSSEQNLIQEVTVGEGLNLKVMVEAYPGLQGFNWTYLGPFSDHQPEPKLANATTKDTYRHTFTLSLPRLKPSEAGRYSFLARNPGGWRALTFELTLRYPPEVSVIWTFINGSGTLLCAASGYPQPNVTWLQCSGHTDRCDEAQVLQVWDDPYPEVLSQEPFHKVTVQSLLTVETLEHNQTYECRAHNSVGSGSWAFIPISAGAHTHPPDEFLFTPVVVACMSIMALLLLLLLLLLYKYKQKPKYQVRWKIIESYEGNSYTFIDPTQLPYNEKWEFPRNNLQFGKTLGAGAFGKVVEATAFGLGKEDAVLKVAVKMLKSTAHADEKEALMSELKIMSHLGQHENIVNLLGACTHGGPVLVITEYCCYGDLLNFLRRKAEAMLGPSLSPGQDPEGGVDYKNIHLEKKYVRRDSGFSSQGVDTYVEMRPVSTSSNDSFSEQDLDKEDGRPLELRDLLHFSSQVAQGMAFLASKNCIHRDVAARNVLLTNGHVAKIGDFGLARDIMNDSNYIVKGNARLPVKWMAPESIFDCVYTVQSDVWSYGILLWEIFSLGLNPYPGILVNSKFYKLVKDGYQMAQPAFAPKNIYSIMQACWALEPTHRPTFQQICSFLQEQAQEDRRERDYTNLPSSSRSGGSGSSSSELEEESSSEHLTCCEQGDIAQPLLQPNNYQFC
Chain of Flt3 (P36888 27-993): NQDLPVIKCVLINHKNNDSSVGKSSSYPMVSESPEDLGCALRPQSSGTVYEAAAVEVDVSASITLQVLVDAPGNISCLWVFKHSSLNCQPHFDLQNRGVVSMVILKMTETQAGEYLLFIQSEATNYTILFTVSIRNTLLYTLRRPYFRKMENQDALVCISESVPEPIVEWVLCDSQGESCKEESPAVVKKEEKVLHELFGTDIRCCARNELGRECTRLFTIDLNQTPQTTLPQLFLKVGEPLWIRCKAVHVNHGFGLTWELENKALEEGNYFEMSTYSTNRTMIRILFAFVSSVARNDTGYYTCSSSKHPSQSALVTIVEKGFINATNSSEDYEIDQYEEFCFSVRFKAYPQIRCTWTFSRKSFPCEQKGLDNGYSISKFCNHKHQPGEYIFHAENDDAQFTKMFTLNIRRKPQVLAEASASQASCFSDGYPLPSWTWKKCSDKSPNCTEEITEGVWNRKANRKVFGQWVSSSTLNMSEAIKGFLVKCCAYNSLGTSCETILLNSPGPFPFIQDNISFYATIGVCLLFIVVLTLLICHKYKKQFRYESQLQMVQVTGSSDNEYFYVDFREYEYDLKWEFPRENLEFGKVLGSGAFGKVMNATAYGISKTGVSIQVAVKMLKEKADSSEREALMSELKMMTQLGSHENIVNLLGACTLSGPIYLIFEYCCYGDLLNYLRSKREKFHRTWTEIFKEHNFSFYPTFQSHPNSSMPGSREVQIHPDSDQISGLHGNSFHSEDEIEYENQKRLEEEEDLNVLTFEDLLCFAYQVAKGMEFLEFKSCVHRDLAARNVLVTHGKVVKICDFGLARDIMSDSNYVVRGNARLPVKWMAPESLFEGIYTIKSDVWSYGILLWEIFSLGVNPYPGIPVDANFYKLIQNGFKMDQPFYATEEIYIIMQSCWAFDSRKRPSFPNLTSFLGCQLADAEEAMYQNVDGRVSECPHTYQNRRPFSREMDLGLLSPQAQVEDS
Chain of PDGFRα (P16234 24-1089): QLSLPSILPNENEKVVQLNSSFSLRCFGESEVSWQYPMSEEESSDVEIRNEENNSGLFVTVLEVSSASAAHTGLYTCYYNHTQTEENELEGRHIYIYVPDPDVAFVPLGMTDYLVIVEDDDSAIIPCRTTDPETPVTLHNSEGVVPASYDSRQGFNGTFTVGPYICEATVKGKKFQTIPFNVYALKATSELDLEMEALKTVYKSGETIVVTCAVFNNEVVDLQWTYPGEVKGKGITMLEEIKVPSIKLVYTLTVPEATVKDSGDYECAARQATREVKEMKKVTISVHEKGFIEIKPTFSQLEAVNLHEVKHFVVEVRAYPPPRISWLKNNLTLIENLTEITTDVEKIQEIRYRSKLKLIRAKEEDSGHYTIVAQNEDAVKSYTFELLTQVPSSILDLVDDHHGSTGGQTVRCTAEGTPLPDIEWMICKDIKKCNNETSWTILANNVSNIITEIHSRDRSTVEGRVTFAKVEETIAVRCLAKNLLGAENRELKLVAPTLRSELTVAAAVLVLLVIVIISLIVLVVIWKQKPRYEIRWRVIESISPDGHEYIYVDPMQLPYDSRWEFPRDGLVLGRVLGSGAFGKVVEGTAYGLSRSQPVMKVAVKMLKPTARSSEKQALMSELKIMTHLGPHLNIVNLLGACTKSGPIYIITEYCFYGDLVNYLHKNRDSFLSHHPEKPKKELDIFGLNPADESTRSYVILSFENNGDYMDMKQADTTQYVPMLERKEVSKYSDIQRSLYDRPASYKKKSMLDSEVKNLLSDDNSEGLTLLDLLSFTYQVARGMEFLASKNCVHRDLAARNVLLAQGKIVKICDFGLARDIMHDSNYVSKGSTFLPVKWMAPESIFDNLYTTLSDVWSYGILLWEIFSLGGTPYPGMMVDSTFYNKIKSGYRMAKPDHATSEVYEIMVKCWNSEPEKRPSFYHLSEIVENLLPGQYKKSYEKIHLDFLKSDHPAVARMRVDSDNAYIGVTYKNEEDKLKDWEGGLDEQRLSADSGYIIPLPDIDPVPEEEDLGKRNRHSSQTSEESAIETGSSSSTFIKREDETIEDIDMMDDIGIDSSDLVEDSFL

Compound | IC50 (PDGFRα) [nM] | IC50 (FMS) [nM] | potency against FMS kinase compared with sorafenib (FMS) | potency and selectivity against FMS kinase (IC50 values) (FMS; against the most sensitive kinases) | IC50 (Flt3) [nM] | IC50 (TrkA) [nM]
CNC(=O)c1cc(-c2ccc(NC(=O)Nc3ccc(N4CCN(C)CC4)c(C(F)(F)F)c3)cc2)nc2cccnc12 [Compound 13b, N-Methyl-2-(4-(3-(4-(4-methylpiperazin-1-yl)-3-(trifluoromethyl)phenyl)ureido)phenyl)-1,5-naphthyridine-4-carboxamide] | 972.4 ± 1.3 | 21.5 ± 0.2 | more potent than the known drug sorafenib | high potency and selectivity against FMS kinase | 362 ± 0.4 | 
CCN1CCN(c2ccc(NC(=O)Nc3ccc(-c4cc(C(=O)NC)c5ncccc5n4)cc3)cc2C(F)(F)F)CC1 [Compound 13c, 2-(4-(3-(4-(4-Ethylpiperazin-1-yl)-3-(trifluoromethyl)phenyl)ureido)phenyl)-N-methyl-1,5-naphthyridine-4-carboxamide] | 992.3 ± 0.6 | 73.9 ± 0.2 | more potent than the known drug sorafenib |  | 483.6 ± 0.7 | 958
